The text below walks through data of patent US20240247080A1, “GLP1/GIP/NPY2 RECEPTOR TRIPLE AGONISTS” (Boehringer Ingelheim International GmbH, priority 2022, published 2024).

Common to all, as to type: cell-based
Common to all, as to conditions: CreLuc reporter gene assay

One assay concerns the target T1, hNPY2R (Homo sapiens, UniProt P49146).
T1 construct: expressed in transfected cells; host or cells: HEK-293 cells carrying a CRE-luciferase reporter gene
T1 sequence (P49146 1-381): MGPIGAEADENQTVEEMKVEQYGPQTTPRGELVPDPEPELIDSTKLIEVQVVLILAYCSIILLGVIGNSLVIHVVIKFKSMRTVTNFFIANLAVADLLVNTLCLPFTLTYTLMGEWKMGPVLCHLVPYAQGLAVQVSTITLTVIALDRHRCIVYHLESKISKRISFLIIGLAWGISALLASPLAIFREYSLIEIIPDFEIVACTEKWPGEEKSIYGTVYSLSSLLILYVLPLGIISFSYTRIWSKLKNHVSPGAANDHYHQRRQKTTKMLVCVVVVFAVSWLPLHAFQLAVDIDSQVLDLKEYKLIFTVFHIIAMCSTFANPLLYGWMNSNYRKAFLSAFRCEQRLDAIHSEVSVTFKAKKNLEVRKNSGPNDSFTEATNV
Description: hNPY2R CreLuc reporter gene assay in 0.5% and 100% plasma. The essentials:
(§1)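 HEK cells (GLP-1R, NPY2R) or CHO cells (GIPR) carrying a CRE-luciferase reporter, incubated 4 h at 37 °C with peptides in HBSS/20 mM HEPES pH 7.4 plus 0.5% human plasma, or in 100% plasma. Luminescence read; EC50 from 8-point variable-slope sigmoid fits.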
On the technique in general: A reporter such as luciferase makes a cellular process visible.

A further assay has as its target T2, hGLP1R (Homo sapiens, UniProt P43220).
T2 construct: expressed in transfected cells; host or cells: HEK-293 cells carrying a CRE-luciferase reporter gene
Description: hGLP1R CreLuc reporter gene assay in 0.5% and 100% plasma. The essentials:
as §1

For another assay, the target named is T3, hGIPR (Homo sapiens, UniProt P48546).
T3 construct: expressed in transfected cells; host or cells: CHO cells carrying a CRE-luciferase reporter gene
T3 sequence (P48546 22-466): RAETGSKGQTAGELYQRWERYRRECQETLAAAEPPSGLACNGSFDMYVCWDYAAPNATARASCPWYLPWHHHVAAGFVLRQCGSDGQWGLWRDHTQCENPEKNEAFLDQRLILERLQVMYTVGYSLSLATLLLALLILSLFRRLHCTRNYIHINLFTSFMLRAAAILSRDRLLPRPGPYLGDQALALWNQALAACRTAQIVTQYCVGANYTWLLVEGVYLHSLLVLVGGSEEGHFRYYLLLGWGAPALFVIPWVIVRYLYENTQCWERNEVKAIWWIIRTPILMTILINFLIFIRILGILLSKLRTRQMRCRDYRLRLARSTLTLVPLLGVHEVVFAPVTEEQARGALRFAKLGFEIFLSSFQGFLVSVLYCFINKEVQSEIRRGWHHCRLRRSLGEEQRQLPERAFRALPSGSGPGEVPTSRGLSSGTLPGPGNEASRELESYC
Briefly: hGIPR CreLuc reporter gene assay in 0.5% and 100% plasma. The essentials:
as §1

The mark [1] stands for this setting: 0.5% human plasma, read-out: hNPY2R 0.5% hP.
Where [2] appears, read: 0.5% human plasma, read-out: hGLP1R 0.5% hP.
[3] abbreviates: 100% human plasma, read-out: hGLP1R 100% hP.
Setting [4] is: 0.5% human plasma, read-out: hGIPR 0.5% hP.
Where [5] appears, read: 100% human plasma, read-out: hGIPR 100% hP.
Setting [6] is: 100% human plasma, read-out: hNPY2R 100% hP.

Read-outs that look alike come from different tables or passages of the source. Starred links: 1 amine or outer side, 2 acyl side, 3 side chain; linkers in the order of their positions; H or OH if unused. Non-standard residues stand in square brackets, D forms with d. Groups on a side chain read outwards from the residue. No end group written: not given here. *: point of attachment. C20 diacid = O=C(O)CCCCCCCCCCCCCCCCCCC(=O)*; C18 diacid = O=C(O)CCCCCCCCCCCCCCCCC(=O)*; γGlu = O=C(O)[C@H](CCC(=O)[*:2])N[*:1]; εLys = N[C@@H](CCCCN[*:1])C(=O)[*:2]; AEEA = NCCOCCOCC(=O)O; Aib = CC(C)(N)C(=O)O

T2 sequence (P43220 24-463): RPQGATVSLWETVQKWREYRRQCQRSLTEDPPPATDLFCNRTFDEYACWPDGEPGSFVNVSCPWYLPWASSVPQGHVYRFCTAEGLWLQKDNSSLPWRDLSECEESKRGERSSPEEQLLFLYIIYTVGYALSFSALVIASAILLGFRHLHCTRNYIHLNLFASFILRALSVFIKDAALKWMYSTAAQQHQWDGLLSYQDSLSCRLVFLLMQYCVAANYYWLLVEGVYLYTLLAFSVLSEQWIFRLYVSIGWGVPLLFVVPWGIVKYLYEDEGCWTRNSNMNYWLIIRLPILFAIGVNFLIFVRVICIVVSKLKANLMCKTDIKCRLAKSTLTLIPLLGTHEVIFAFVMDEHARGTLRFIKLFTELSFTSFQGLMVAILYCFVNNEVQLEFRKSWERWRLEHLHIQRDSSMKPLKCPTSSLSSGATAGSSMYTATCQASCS

For “H-Y[Aib]EGTFTSDYSI[Aib]LEKQAQ[Aib]AFVEWLIK([εLys-γGlu-γGlu-γGlu-γGlu-γGlu-γGlu-C20 diacid])GGPSEPASLRHYYNWLTRQRY-NH2 [Compound 233, Y-Aib-E-G-T-F-T-S-D-Y-S-I-Aib-L-E-K-Q-A-Q-Aib-A-F-V-E-W-L-I-K(1,3)-GGPSEPASLRHYYNWLTRQRY-NH2.C20DA-gGlu-gGlu-gGlu-gGlu-gGlu-gGlu-eLys(1,2)]”, the EC50 on hNPY2R (setting [1]) worked out at 12.6 nM; on hGLP1R (setting [2]) it was 0.17 nM; at hGLP1R (setting [3]), 1.7 nM; at hGIPR (setting [4]), 0.08 nM; on hGIPR (setting [5]), 0.75 nM.
As to “H-Y[Aib]EGTFTSDYSI[Aib]LEKQAQ[Aib]AFVEWLIK([εLys-γGlu-γGlu-γGlu-γGlu-γGlu-γGlu-C20 diacid])GGPSSGVSLRHYYNWLTRQRY-NH2 [Compound 96, Y-Aib-E-G-T-F-T-S-D-Y-S-I-Aib-L-E-K-Q-A-Q-Aib-A-F-V-E-W-L-I-K(1,3)-GGPSSGVSLRHYYNWLTRQRY-NH2.C20DA-gGlu-gGlu-gGlu-gGlu-gGlu-gGlu-eLys(1,2)]”, the EC50 at hNPY2R (setting [6]) turned out to be 44.8 nM; on hGLP1R (setting [2]), 0.14 nM; on hGLP1R (setting [3]) it was 2.12 nM; on hGIPR (setting [4]), 0.19 nM; on hGIPR (setting [5]), 1.07 nM.
For `CC[C@H](C)[C@H](NC(=O)[C@H](CC(C)C)NC(=O)[C@H](Cc1c[nH]c2ccccc12)NC(=O)[C@H](CCC(N)=O)NC(=O)[C@@H](NC(=O)[C@H](Cc1ccccc1)NC(=O)[C@H](C)NC(=O)C(C)(C)NC(=O)[C@H](CCC(N)=O)NC(=O)[C@H](C)NC(=O)[C@H](CCC(N)=O)NC(=O)[C@H](CCCCN)NC(=O)[C@H](CCC(=O)O)NC(=O)[C@H](CC(C)C)NC(=O)C(C)(C)NC(=O)[C@@H](NC(=O)[C@H](CO)NC(=O)[C@H](Cc1ccc(O)cc1)NC(=O)[C@H](CC(=O)O)NC(=O)[C@H](CO)NC(=O)[C@@H](NC(=O)[C@H](Cc1ccccc1)NC(=O)[C@@H](NC(=O)CNC(=O)[C@H](CCC(=O)O)NC(=O)C(C)(C)NC(=O)[C@@H](N)Cc1ccc(O)cc1)[C@@H](C)O)[C@@H](C)O)[C@@H](C)CC)C(C)C)C(=O)N[C@@H](CCCCNC(=O)[C@H](CCC(=O)O)NC(=O)[C@H](CCC(=O)O)NC(=O)[C@H](CCC(=O)O)NC(=O)[C@H](CCC(=O)O)NC(=O)[C@H](CCC(=O)O)NC(=O)CCCCCCCCCCCCCCCCC(=O)O)C(=O)NCC(=O)NCC(=O)N1CCC[C@H]1C(=O)N[C@@H](CO)C(=O)N[C@@H](CCC(=O)O)C(=O)NCC(=O)N[C@@H](C)C(=O)N[C@@H](CO)C(=O)N[C@@H](CC(C)C)C(=O)N[C@@H](CCCNC(=N)N)C(=O)N[C@@H](Cc1c[nH]cn1)C(=O)N[C@@H](Cc1ccc(O)cc1)C(=O)N[C@@H](Cc1ccc(O)cc1)C(=O)N[C@@H](CC(N)=O)C(=O)N[C@@H](Cc1c[nH]c2ccccc12)C(=O)N[C@@H](CC(C)C)C(=O)N[C@H](C(=O)N[C@@H](CCCNC(=N)N)C(=O)N[C@@H](CCC(N)=O)C(=O)N[C@@H](CCCNC(=N)N)C(=O)N[C@@H](Cc1ccc(O)cc1)C(N)=O)[C@@H](C)O` [Compound 257, Y-Aib-E-G-T-F-T-S-D-Y-S-I-Aib-L-E-K-Q-A-Q-Aib-A-F-V-Q-W-L-I-K(1,3)-GGPSEGASLRHYYNWLTRQRY-NH2.C18DA-E-E-E-E-E(1,2)], the EC50 on hNPY2R (setting [1]) turned out to be 16.9 nM; at hGLP1R (setting [2]) it was 0.08 nM; at hGLP1R (setting [3]), 2.48 nM; on hGIPR (setting [4]) it was 0.14 nM.
Take “H-Y[Aib]EGTFTSDYSI[Aib]LEKQAQ[Aib]AFVEWLIK([γGlu-γGlu-γGlu-γGlu-γGlu-C18 diacid])GGPSSPASLRHYYNWLTRQRY-NH2 [Compound 180, Y-Aib-E-G-T-F-T-S-D-Y-S-I-Aib-L-E-K-Q-A-Q-Aib-A-F-V-E-W-L-I-K(1,3)-GGPSSPASLRHYYNWLTRQRY-NH2.C18DA-gGlu-gGlu-gGlu-gGlu-gGlu(1,2)]”: the EC50 at hNPY2R (setting [6]) worked out at 107 nM; on hGLP1R (setting [2]), 0.1 nM; at hGIPR (setting [4]) it was 0.2 nM.
With `CC[C@H](C)[C@H](NC(=O)[C@H](CC(C)C)NC(=O)[C@H](Cc1c[nH]c2ccccc12)NC(=O)[C@H](CCC(=O)O)NC(=O)[C@@H](NC(=O)[C@H](Cc1ccccc1)NC(=O)[C@H](C)NC(=O)C(C)(C)NC(=O)[C@H](CCC(N)=O)NC(=O)[C@H](C)NC(=O)[C@H](CCC(N)=O)NC(=O)[C@H](CCCCN)NC(=O)[C@H](CCC(=O)O)NC(=O)[C@H](CC(C)C)NC(=O)C(C)(C)NC(=O)[C@@H](NC(=O)[C@H](CO)NC(=O)[C@H](Cc1ccc(O)cc1)NC(=O)[C@H](CC(=O)O)NC(=O)[C@H](CO)NC(=O)[C@@H](NC(=O)[C@H](Cc1ccccc1)NC(=O)[C@@H](NC(=O)CNC(=O)[C@H](CCC(=O)O)NC(=O)C(C)(C)NC(=O)[C@@H](N)Cc1ccc(O)cc1)[C@@H](C)O)[C@@H](C)O)[C@@H](C)CC)C(C)C)C(=O)N[C@@H](CCCCNC(=O)[C@@H](N)CCCCNC(=O)CC[C@H](NC(=O)CC[C@H](NC(=O)CC[C@H](NC(=O)CC[C@H](NC(=O)CC[C@H](NC(=O)CC[C@H](NC(=O)CCCCCCCCCCCCCCCCCCC(=O)O)C(=O)O)C(=O)O)C(=O)O)C(=O)O)C(=O)O)C(=O)O)C(=O)NCC(=O)NCC(=O)N1CCC[C@H]1C(=O)N[C@@H](CO)C(=O)N[C@@H](CO)C(=O)NCC(=O)N[C@@H](C)C(=O)N[C@@H](CO)C(=O)N[C@H](C(=O)N[C@@H](CCCNC(=N)N)C(=O)N[C@@H](Cc1c[nH]cn1)C(=O)N[C@@H](Cc1ccc(O)cc1)C(=O)N[C@@H](Cc1ccc(O)cc1)C(=O)N[C@@H](CC(N)=O)C(=O)N[C@@H](Cc1c[nH]c2ccccc12)C(=O)N[C@@H](CC(C)C)C(=O)N[C@H](C(=O)N[C@@H](CCCNC(=N)N)C(=O)N[C@@H](CCC(N)=O)C(=O)N[C@@H](CCCNC(=N)N)C(=O)N[C@@H](Cc1ccc(O)cc1)C(N)=O)[C@@H](C)O)C(C)(C)C` [Compound 103, Y-Aib-E-G-T-F-T-S-D-Y-S-I-Aib-L-E-K-Q-A-Q-Aib-A-F-V-E-W-L-I-K(1,3)-G-G-P-S-S-G-A-S-Tle-R-H-Y-Y-N-W-L-T-R-Q-R-Y-NH2.C20DA-gGlu-gGlu-gGlu-gGlu-gGlu-gGlu-eLys(1,2)], the EC50 at hNPY2R (hNPY2R 100% hP, 100% human plasma) turned out to be 50.7 nM; at hGLP1R (hGLP1R 0.5% hP, 0.5% human plasma), 0.13 nM; on hGIPR (hGIPR 0.5% hP, 0.5% human plasma), 0.26 nM.
For “Y[Aib]EGTFTSDYSI[Aib]LEKQAQ[Aib]AFVEWLIK([εLys-γGlu-γGlu-γGlu-γGlu-γGlu-C18 diacid])GGPSEGASLRHYYNWLTRQRY-NH2 [Compound 295, Y-Aib-E-G-T-F-T-S-D-Y-S-I-Aib-L-E-K-Q-A-Q-Aib-A-F-V-E-W-L-I-K(1,3)-GGPSEGASLRHYYNWLTRQRY-NH2.C18DA-gGlu-gGlu-glu-gGlu-gGlu-eLys(1,2)]”, the EC50 at hNPY2R (setting [1]) worked out at 10.9 nM; on hGLP1R (setting [2]), 0.14 nM; at hGIPR (setting [4]), 0.3 nM; at hGIPR (setting [5]), 0.98 nM.
With “H-Y[Aib]EGTFTSDYSI[Aib]LEKQAQ[Aib]AFVQWLIK([AEEA-AEEA-Glu-Glu-Glu-Glu-C18 diacid])GGPEEGASLRHYYNWLTRQRY-NH2 [Compound 177, Y-Aib-E-G-T-F-T-S-D-Y-S-I-Aib-L-E-K-Q-A-Q-Aib-A-F-V-Q-W-L-I-K(1,3)-GGPEEGASLRHYYNWLTRQRY-NH2.C18DA-E-E-E-E-OEG-OEG(1,2)]”, the EC50 is 18.7 nM on hNPY2R (setting [1]), 115 nM at hNPY2R (setting [6]), 0.16 nM at hGLP1R (setting [2]) and 0.28 nM at hGIPR (setting [4]).
